# Source: article PMC4008261, “Rewiring of regenerated axons by combining treadmill training with semaphorin3A inhibition” (Molecular Brain, 2014)
# How the values were obtained:
# [1] = target: T1, semaphorin3A (Homo sapiens, UniProt Q14563); experiment: Collagen co-culture assay (E8 chick DRGs and semaphorin3A-expressing COS7 cell aggregates); assay type: cell-based; set-up: expressed in transfected cells; host or cells: COS7; settings: chick embryonic DRG explants co-cultured with semaphorin3A-COS in collagen gel
# T1 sequence (Q14563 21-771): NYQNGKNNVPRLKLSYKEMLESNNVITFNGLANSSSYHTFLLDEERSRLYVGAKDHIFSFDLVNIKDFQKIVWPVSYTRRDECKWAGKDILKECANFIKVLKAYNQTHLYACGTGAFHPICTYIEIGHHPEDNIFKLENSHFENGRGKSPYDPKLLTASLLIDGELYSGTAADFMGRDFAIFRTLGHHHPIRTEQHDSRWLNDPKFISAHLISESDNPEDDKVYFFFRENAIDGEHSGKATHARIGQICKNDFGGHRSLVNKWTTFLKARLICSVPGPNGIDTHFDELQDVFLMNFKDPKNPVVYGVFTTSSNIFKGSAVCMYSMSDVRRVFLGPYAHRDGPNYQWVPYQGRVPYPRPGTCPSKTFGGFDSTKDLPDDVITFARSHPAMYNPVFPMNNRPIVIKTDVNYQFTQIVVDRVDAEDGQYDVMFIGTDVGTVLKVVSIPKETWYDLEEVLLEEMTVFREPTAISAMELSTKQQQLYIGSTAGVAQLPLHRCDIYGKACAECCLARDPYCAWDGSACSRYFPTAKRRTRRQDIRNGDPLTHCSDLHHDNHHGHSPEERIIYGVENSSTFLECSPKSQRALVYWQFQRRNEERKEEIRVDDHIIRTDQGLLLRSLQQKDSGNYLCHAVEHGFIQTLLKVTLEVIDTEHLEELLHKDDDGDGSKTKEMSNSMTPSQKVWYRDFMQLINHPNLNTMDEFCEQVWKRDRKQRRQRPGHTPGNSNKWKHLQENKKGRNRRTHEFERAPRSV
# Procedure: (§1) The growth cone collapse assay and collagen co-culture experiments were performed as previously described. To examine the effects of SM-345431-silicone, small pieces (2 × 1 × 0.3 mm; approximately 1 mg containing 1 μg of SM-345431) of the SM-345431-silicone or control-silicone were placed in a collagen gel adjacent to E8 chick DRGs and COS7 cell aggregates, as shown in Figure 1C.
# [2] = target: Matrix Metalloproteinase-2 (MMP-2) (Homo sapiens, UniProt P08253); experiment: Pharmacological profile: enzyme inhibition; assay type: biochemical
# Sequence of Matrix Metalloproteinase-2 (MMP-2) (P08253 110-660, species assumed): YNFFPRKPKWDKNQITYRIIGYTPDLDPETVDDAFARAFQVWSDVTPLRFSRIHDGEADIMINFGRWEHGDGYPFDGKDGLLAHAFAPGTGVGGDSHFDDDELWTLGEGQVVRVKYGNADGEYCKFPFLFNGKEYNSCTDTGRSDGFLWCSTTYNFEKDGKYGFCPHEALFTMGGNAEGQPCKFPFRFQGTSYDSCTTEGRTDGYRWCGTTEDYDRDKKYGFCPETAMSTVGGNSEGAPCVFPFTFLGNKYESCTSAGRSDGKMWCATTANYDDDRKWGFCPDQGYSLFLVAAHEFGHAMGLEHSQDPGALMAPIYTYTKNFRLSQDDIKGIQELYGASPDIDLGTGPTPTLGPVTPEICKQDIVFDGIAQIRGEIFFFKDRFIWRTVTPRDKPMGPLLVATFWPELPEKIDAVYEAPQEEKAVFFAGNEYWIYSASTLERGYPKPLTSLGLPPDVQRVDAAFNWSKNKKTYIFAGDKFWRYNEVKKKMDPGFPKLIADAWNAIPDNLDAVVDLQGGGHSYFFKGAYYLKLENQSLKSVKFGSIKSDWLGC
# Excerpt: (§2) Table 1 Pharmacological profile of SM-345431 (part 1) | column: IC50 (μm)
# [3] = target: Sphingomyelinase, Neutral (N-SMase); experiment: Pharmacological profile: enzyme inhibition; assay type: biochemical
# Excerpt: as §2
# [4] = target: Matrix Metalloproteinase-3 (MMP-3) (Homo sapiens, UniProt P08254); experiment: Pharmacological profile: enzyme inhibition; assay type: biochemical
# Sequence of Matrix Metalloproteinase-3 (MMP-3) (P08254 100-477, species assumed): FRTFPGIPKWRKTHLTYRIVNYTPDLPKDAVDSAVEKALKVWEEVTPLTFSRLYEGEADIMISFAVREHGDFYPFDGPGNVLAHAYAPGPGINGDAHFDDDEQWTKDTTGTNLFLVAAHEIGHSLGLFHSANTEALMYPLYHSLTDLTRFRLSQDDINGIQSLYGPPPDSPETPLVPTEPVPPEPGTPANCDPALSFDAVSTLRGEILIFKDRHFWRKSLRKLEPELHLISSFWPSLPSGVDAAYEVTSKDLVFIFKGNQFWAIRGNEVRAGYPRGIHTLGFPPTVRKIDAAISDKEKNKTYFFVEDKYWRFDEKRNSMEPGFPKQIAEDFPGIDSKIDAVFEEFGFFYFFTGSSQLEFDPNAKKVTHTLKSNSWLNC
# Excerpt: as §2
# [5] = target: Protein Tyrosine Phosphatase, T-Cell (Homo sapiens, UniProt P17706); experiment: Pharmacological profile: enzyme inhibition; assay type: biochemical
# Sequence of Protein Tyrosine Phosphatase, T-Cell (P17706 whole entry): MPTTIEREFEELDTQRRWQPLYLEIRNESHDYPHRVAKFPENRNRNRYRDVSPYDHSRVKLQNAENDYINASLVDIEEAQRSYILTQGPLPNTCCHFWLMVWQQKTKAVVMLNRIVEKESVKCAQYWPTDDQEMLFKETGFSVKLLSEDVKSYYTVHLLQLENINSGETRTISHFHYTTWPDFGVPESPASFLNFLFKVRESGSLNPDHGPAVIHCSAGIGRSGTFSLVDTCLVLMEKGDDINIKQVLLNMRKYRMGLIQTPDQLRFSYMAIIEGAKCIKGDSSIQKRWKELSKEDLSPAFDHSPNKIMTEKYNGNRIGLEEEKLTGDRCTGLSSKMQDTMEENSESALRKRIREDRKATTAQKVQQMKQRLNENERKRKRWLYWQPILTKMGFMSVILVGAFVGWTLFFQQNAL
# Excerpt: as §2
# [6] = target: Caspase 6 (Homo sapiens, UniProt P55212); experiment: Pharmacological profile: enzyme inhibition; assay type: biochemical
# Excerpt: as §2
# [7] = target: Protein Tyrosine Phosphatase, PTP1C (Homo sapiens, UniProt P29350); experiment: Pharmacological profile: enzyme inhibition; assay type: biochemical
# Excerpt: as §2
# [8] = target: Matrix Metalloproteinase-9 (MMP-9) (Homo sapiens, UniProt P14780); experiment: Pharmacological profile: enzyme inhibition; assay type: biochemical
# Excerpt: as §2
# [9] = target: Matrix Metalloproteinase-1 (MMP-1) (Homo sapiens, UniProt P03956); experiment: Pharmacological profile: enzyme inhibition; assay type: biochemical
# Sequence of Matrix Metalloproteinase-1 (MMP-1) (P03956 100-469, species assumed): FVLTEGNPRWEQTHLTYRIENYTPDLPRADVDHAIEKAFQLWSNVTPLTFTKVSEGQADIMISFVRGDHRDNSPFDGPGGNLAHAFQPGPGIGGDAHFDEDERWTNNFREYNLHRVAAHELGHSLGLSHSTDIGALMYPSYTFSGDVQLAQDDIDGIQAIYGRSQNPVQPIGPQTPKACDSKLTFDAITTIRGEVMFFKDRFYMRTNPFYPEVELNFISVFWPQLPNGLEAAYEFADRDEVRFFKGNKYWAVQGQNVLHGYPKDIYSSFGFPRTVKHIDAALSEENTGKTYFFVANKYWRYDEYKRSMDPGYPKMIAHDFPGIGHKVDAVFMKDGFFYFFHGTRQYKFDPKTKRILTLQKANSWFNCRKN
# Excerpt: as §2
# [10] = target: Caspase 8 (Homo sapiens, UniProt Q14790); experiment: Pharmacological profile: enzyme inhibition; assay type: biochemical
# Sequence of Caspase 8 (Q14790 217-374 limits assumed, species assumed): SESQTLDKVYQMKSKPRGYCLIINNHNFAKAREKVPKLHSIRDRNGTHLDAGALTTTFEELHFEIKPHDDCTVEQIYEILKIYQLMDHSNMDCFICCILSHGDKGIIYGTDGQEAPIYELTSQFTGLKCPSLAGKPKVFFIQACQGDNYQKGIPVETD
# Sequence of Caspase 8 (Q14790 385-479 limits assumed, species assumed): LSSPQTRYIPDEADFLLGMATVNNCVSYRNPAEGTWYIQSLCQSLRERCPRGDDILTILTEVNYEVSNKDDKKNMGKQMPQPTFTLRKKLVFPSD
# Excerpt: as §2
# [11] = target: Caspase 1 (Homo sapiens, UniProt P29466); experiment: Pharmacological profile: enzyme inhibition; assay type: biochemical
# Sequence of Caspase 1 (P29466 120-297 limits assumed, species assumed): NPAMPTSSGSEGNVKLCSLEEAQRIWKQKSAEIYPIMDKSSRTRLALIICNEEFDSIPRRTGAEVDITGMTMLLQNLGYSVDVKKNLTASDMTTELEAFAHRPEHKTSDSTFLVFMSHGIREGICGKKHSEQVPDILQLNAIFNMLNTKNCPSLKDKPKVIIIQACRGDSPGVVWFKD
# Sequence of Caspase 1 (P29466 317-404 limits assumed, species assumed): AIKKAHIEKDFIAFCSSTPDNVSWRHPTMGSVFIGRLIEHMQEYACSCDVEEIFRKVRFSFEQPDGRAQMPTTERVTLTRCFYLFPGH
# Excerpt: as §2
# [12] = target: Protein Tyrosine Phosphatase, CD45 (Homo sapiens, UniProt P08575); experiment: Pharmacological profile: enzyme inhibition; assay type: biochemical
# Sequence of Protein Tyrosine Phosphatase, CD45 (P08575 26-1306): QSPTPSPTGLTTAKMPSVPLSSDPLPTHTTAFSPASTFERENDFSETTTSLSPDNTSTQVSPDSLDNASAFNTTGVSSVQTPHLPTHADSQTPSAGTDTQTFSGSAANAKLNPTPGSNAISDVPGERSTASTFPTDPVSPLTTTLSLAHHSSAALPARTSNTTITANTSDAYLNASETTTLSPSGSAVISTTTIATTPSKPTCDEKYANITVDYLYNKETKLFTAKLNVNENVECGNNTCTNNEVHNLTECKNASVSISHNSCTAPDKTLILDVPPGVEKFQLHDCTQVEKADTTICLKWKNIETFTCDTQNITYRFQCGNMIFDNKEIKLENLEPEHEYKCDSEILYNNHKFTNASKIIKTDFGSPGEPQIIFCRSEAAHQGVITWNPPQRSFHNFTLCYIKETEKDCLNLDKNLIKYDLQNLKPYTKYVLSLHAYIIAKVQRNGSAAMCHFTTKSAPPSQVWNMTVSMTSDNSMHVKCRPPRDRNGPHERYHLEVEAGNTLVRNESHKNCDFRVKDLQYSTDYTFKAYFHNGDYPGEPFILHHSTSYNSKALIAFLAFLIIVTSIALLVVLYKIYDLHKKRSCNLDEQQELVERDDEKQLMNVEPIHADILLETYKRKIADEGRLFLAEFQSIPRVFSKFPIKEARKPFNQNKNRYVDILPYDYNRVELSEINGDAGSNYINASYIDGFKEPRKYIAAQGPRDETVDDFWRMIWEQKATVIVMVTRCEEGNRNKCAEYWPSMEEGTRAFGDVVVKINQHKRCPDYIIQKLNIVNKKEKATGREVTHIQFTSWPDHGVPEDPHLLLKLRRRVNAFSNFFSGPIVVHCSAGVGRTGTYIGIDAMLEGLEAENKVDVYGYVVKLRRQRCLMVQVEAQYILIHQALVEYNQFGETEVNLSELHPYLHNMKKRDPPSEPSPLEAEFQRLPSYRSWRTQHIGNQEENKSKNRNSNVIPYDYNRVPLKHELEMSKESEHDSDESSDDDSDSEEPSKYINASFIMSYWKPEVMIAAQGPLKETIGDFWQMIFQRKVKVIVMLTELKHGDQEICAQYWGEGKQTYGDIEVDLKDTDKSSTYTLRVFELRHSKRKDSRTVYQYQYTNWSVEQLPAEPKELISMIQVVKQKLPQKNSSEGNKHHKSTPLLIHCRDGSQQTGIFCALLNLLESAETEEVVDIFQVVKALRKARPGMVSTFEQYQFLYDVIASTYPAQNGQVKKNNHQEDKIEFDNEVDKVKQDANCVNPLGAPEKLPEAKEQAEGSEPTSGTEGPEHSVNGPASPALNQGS
# Excerpt: as §2
# [13] = target: Caspase 3 (Homo sapiens, UniProt P42574); experiment: Pharmacological profile: enzyme inhibition; assay type: biochemical
# Sequence of Caspase 3 (P42574 29-175 limits assumed, species assumed): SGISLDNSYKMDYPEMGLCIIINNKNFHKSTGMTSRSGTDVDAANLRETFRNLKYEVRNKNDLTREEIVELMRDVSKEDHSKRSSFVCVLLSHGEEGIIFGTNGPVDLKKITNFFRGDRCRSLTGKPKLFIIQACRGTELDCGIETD
# Sequence of Caspase 3 (P42574 176-277 limits assumed, species assumed): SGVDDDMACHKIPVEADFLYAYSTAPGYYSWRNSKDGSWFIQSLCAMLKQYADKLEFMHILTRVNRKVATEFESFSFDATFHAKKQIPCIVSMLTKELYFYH
# Excerpt: as §2
# [14] = target: Caspase 7 (Homo sapiens, UniProt P55210); experiment: Pharmacological profile: enzyme inhibition; assay type: biochemical
# Sequence of Caspase 7 (P55210 24-198 limits assumed, species assumed): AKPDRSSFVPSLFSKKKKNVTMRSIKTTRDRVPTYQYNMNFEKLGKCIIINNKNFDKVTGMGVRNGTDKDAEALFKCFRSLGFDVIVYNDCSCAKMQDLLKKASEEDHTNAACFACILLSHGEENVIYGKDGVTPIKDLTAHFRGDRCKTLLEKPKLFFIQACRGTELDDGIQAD
# Sequence of Caspase 7 (P55210 207-303 limits assumed, species assumed): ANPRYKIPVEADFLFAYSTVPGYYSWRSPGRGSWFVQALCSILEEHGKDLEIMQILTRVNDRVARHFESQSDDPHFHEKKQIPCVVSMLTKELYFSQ
# Excerpt: as §2
# [15] = target: Protein Tyrosine Phosphatase, PTP1B (Homo sapiens, UniProt P18031); experiment: Pharmacological profile: enzyme inhibition; assay type: biochemical
# Sequence of Protein Tyrosine Phosphatase, PTP1B (P18031 whole entry): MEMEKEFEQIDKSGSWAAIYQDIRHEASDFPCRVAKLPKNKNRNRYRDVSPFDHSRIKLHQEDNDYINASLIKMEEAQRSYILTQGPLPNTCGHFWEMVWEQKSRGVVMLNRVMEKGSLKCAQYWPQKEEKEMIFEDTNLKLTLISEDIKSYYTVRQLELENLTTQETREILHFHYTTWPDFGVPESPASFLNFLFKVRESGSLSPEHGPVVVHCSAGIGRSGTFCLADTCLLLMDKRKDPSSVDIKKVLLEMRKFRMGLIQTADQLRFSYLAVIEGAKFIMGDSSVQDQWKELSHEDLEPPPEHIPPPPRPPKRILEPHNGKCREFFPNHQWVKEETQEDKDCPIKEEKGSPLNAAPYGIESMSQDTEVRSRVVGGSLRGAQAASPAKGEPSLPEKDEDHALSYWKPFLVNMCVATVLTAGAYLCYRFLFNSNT
# Excerpt: as §2
# [16] = target: Matrix Metalloproteinase-7 (MMP-7) (Homo sapiens, UniProt P09237); experiment: Pharmacological profile: enzyme inhibition; assay type: biochemical
# Sequence of Matrix Metalloproteinase-7 (MMP-7) (P09237 95-267, species assumed): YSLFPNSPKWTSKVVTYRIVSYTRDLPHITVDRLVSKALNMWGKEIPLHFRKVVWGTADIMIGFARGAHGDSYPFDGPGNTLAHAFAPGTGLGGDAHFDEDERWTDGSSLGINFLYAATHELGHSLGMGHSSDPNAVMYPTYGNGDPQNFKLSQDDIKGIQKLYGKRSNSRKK
# Excerpt: as §2
# [17] = test system: Cell proliferation, B-Cell+LPS; experiment: Pharmacological profile: cell proliferation; assay type: cell-based
# Excerpt: as §2
# [18] = test system: Cell proliferation, T-Cell+Con A; experiment: Pharmacological profile: cell proliferation; assay type: cell-based
# Excerpt: as §2
# [19] = test system: Mediator release, IL-1beta; experiment: Pharmacological profile: mediator release; assay type: cell-based
# Excerpt: as §2
# [20] = test system: Mediator release, IL-5; experiment: Pharmacological profile: mediator release; assay type: cell-based
# Excerpt: as §2
# [21] = test system: Mediator release, TNF-alfa, PBML; experiment: Pharmacological profile: mediator release; assay type: cell-based
# Excerpt: as §2
# [22] = test system: Mediator release, IL-2; experiment: Pharmacological profile: mediator release; assay type: cell-based
# Excerpt: as §2
# [23] = test system: Mediator release, IFN-gamma; experiment: Pharmacological profile: mediator release; assay type: cell-based
# Excerpt: as §2
# [24] = test system: Mediator release, IL-10; experiment: Pharmacological profile: mediator release; assay type: cell-based
# Excerpt: as §2
# [25] = test system: Mediator release, IL-4; experiment: Pharmacological profile: mediator release; assay type: cell-based
# Excerpt: as §2
# [26] = target: T1, semaphorin3A; experiment: Growth cone collapse assay, E14 rat DRG; assay type: cell-based; settings: read-out: semaphorin3A inhibiting activity, IC50
# Procedure: as §1
# [27] = target: T1, semaphorin3A; experiment: Growth cone collapse assay, E8 chick DRG; assay type: cell-based; set-up: expressed in transfected cells; host or cells: COS7; settings: read-out: semaphorin3A inhibiting activity, IC50
# Procedure: as §1
compound,measurement,setting,value
"CC(=O)c1cc2c(=O)c3c(C(=O)O)c(O)c(O)cc3oc2c(C(C)=O)c1-c1coc2cc(O)c(O)c(C(=O)O)c2c1=O [SM-345431, Vinaxanthone]",block of the chemo-repulsive effects of semaphorin3A on DRG neurites,[1],chemo-repulsive effects of semaphorin3A were blocked by SM-345431 in a dose-dependent manner
same,IC50,[2],> 10 µM
same,IC50,[3],> 10 µM
same,IC50,[4],> 10 µM
same,IC50,[5],> 10 µM
same,IC50,[6],> 10 µM
same,IC50,[7],> 10 µM
same,IC50,[8],> 10 µM
same,IC50,[9],> 10 µM
same,IC50,[10],> 10 µM
same,IC50,[11],> 10 µM
same,IC50,[12],> 10 µM
same,IC50,[13],> 10 µM
same,IC50,[14],> 10 µM
same,IC50,[15],> 10 µM
same,IC50,[16],10 µM
same,IC50,[17],> 10 µM
same,IC50,[18],> 10 µM
same,IC50,[19],> 10 µM
same,IC50,[20],> 10 µM
same,IC50,[21],> 10 µM
same,IC50,[22],> 10 µM
same,IC50,[23],> 10 µM
same,IC50,[24],> 10 µM
same,IC50,[25],> 10 µM
same,IC50,[26],0.1 to 0.2 µM
same,IC50,[27],0.1 to 0.2 µM
